Data from patent publication US20030144292A1, “Carbocyclic side chain containing, N-substituted metalloprotease inhibitors” (priority 2000, published 2003).

Key:
Type in all cases: in vivo
[1] = tested on: human subject suffering from rheumatoid arthritis; experiment: Example A: oral tablet treatment of rheumatoid arthritis; settings: tablet with 15 mg compound, three tablets per day orally for 2 years
Experimental: A tablet composition for oral administration, according to the present invention, is made comprising:
A human subject weighing 60 kg (132 lbs), suffering from rheumatoid arthritis, is treated by a method of this invention. Specifically, for 2 years, a regimen of three tablets per day is administered orally to said subject.

[2] = tested on: patient suffering from chemical burns; experiment: Example D: topical composition for chemical burns; settings: 0.20% w/v topical composition at each dressing change (b.i.d.)
Text: A topical composition for local administration, according to the present invention, is made comprising:
A patient suffering from chemical burns applies the composition at each dressing change (b.i.d.).

[3] = tested on: human subject suffering from osteoarthritis; experiment: Example B: oral capsule treatment of osteoarthritis; settings: capsule containing 70 mg daily for 5 years
Experimental: A capsule for oral administration, according to the present invention, is made comprising:
A human subject weighing 90 kg (198 lbs.), suffering from osteoarthritis, is treated by a method of this invention. Specifically, for 5 years, a capsule containing 70 mg of the compound of Example 3 is administered daily to said subject.

[4] = tested on: human subject with a premetastatic tumor; experiment: Example G: parenteral suspension injected next to a premetastatic tumor; settings: 100 mg/mL suspension, about 2.0 mL injected beside the tumor twice daily, after 30 days
Experimental: A composition for parenteral administration is made comprising:
The above ingredients are mixed, forming a suspension. Approximately 2.0 mL of the suspension is administered, via injection, to a human subject with a premetastatic tumor. The injection site juxtaposes the tumor. This dosage is repeated twice daily, for approximately 30 days.

[5] = tested on: patient having deep corneal abrasion; experiment: Example C: saline-based eye drop for deep corneal abrasion; settings: 5% w/w drop to each eye twice a day
Text: A saline-based composition for local administration, according to the present invention, is made comprising:
A patient having deep corneal abrasion applies the drop to each eye twice a day.

asthma sufferer = experiment: Example E: inhalation aerosol for asthma; settings: 5.0% w/v aerosol, 0.01 mL sprayed into the mouth while inhaling

SMILES: COc1ccc(-c2ccc(S(=O)(=O)N(C)C(C(=O)O)C3CCC(O)CC3)cc2)cc1 (centres unmarked) [Example 1, N-{[4′-Methoxy-(1,1′-biphenyl)-4-yl]-sulfonyl-N-methyl-amino}-(4-hydroxycyclohexan-1-yl)-acetic Acid]
- inflammation at end of treatment period [1]: reduced inflammation
- mobility and pain at end of treatment period [1]: improved mobility without concomitant pain

SMILES: COc1ccc(-c2ccc(S(=O)(=O)N(C)C(C(=O)O)C3CCC(N4CCOC4=O)CC3)cc2)cc1 (centres unmarked) [Example 21, N-{[4′-Methoxy-(1,1′-biphenyl)-4-yl]-sulfonyl-N-methylamino}-[4-(oxazolidin-2-one-3N-yl)-cyclohexan-1-yl]-acetic Acid]
- scarring [2]: substantially diminished

SMILES: CN([C@@H](C(=O)O)C1CCC2(CC1)OCCCO2)S(=O)(=O)c1ccc(-c2ccc(Br)cc2)cc1 [Example 3, (R)-N-{[4′-bromo-(1,1′-biphenyl)-4-yl]-sulfonyl}-N-methylamino-(1,5-dioxa-spiro[5.5]undec-9-yl)-acetic Acid]
- advancement of erosion/fibrillation of the articular cartilage (x-ray, arthroscopy and/or MRI) [3]: no further advancement

SMILES: COc1ccc(-c2ccc(S(=O)(=O)N(C)[C@@H](C(=O)O)C3CCC4(CC3)OCCCO4)cc2)cc1 [Example 2, (R)-N-{[4′-methoxy-(1,1′-biphenyl)-4-yl]-sulfonyl}-N-methylamino-(1,5-dioxa-spiro[5.5]undec-9-yl)-acetic Acid]
- symptoms of the disease [4]: subside

SMILES: COc1ccc(-c2ccc(S(=O)(=O)N(C)C(C(=O)O)C3(SC)CCCC4(C3)OCCO4)cc2)cc1 (centres unmarked) [Example 10, (7-methylthio-1,4-Dioxaspiro[4.5]dec-7-yl)-N-{[4′-Methoxy-(1,1′-biphenyl)-4-yl]-sulfonyl}-N-methylamino-acetic Acid]
- healing of corneal abrasion [5]: speeded
- visual sequelae [5]: no visual sequelae

SMILES: COc1ccc(-c2ccc(S(=O)(=O)N(C)C(C(=O)O)C3CCC(N4CCCC4=O)CC3)cc2)cc1 (centres unmarked) [Example 19, N-{[4′-Methoxy-(1,1′-biphenyl)-4-yl]-sulfonyl-N-methylamino}-[4-(2-oxopyrrolidin-1N-yl)-cyclohexan-1-yl]-acetic Acid]
- asthma symptoms (asthma sufferer): diminished
